Assay results as given in ChEMBL document CHEMBL1201862, “PubChem BioAssay data set” (2004).
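All cell lines were grown in 96-well plates and treated with compound for 48 hours. Here, GI50 denotes the concentration required for 50% inhibition of growth.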 Calls of active or inactive are those of the source. No stated cut-off is given here; in the data, active = GI50 up to about 1.1 µM and inactive = higher.

Legend:
Experiment in all cases: DTP human tumour cell line panel, 48 h
[1] = test system: KM-20L2
[2] = test system: LXFL 529
[3] = test system: XF498
[4] = test system: HOP-18
[5] = test system: DMS-273
[6] = test system: DLD-1
[7] = test system: DMS-114
[8] = test system: SNB-78
[9] = test system: RXF 631

| Compound | GI50 [1] | GI50 [2] | GI50 [3] | GI50 [4] | GI50 [5] | GI50 [6] | GI50 [7] | GI50 [8] | GI50 [9] |
| --- | --- | --- | --- | --- | --- | --- | --- | --- | --- |
| N=C(N)NS(=O)(=O)c1ccc(Nc2c3ccccc3nc3c(C(=O)N4CCN(CCO)CC4)cccc23)cc1 | > 100 µM (inactive) | > 100 µM (inactive) | > 100 µM (inactive) | > 100 µM (inactive) | > 100 µM (inactive) | > 100 µM (inactive) | > 100 µM (inactive) | > 100 µM (inactive) | – |
| Cc1cc2nc3ccc(N(C)C)cc3[s+]c2cc1N [TOLONIUM CHLORIDE] | 14.5 µM (inactive) | 0.769 µM (active) | – | 10.3 µM (inactive) | 2.67 µM (inactive) | 6.38 µM (inactive) | 0.867 µM (active) | 12.6 µM (inactive) | – |
| OC1C2C=CCC1CCC2 (stereo not drawn) | > 100 µM (inactive) | – | > 100 µM (inactive) | > 100 µM (inactive) | > 100 µM (inactive) | > 100 µM (inactive) | > 100 µM (inactive) | > 100 µM (inactive) | > 100 µM (inactive) |
| CCCCCCCCCCC/C(=N/O)c1ccc(O)c2ncccc12 | 3.85 µM (inactive) | 2.23 µM (inactive) | – | 3.36 µM (inactive) | 1.51 µM (inactive) | 2.75 µM (inactive) | 2 µM (inactive) | 4.55 µM (inactive) | – |
| CCOC(=O)NN1C(=O)C(=P(c2ccccc2)(c2ccccc2)c2ccccc2)C(C(=O)OCC)=C1C | > 100 µM (inactive) | > 100 µM (inactive) | > 100 µM (inactive) | – | > 100 µM (inactive) | > 100 µM (inactive) | – | > 100 µM (inactive) | > 100 µM (inactive) |
| COc1ccccc1NC(=O)c1nc2ccc([N+](=O)[O-])cc2nc1C | > 100 µM (inactive) | > 100 µM (inactive) | 21 µM (inactive) | 0.238 µM (active) | > 100 µM (inactive) | > 100 µM (inactive) | > 100 µM (inactive) | – | – |
| O=C1CNNC(Cn2nc(-c3ccccc3)c3ccccc3c2=O)=N1 | – | > 100 µM (inactive) | – | > 100 µM (inactive) | > 100 µM (inactive) | > 100 µM (inactive) | > 100 µM (inactive) | > 100 µM (inactive) | – |
| CCOC(=O)C1Nc2ccccc2[C@H]2OCC[C@@H]12 (stereo partly drawn) | > 100 µM (inactive) | – | > 100 µM (inactive) | > 100 µM (inactive) | > 100 µM (inactive) | > 100 µM (inactive) | – | > 100 µM (inactive) | – |
| O=C(Cc1ccccc1)Oc1ccc2c(-c3ccccc3)c(C(=O)Nc3ccc(Cl)cc3)c(=O)oc2c1 | > 100 µM (inactive) | > 100 µM (inactive) | > 100 µM (inactive) | – | > 100 µM (inactive) | > 100 µM (inactive) | > 100 µM (inactive) | > 100 µM (inactive) | – |
| COc1ccc(NC(=O)CC(=O)N/N=C/c2ccc(N(CCC#N)S(=O)(=O)c3ccccc3)cc2)cc1 | > 100 µM (inactive) | > 100 µM (inactive) | > 100 µM (inactive) | > 100 µM (inactive) | – | > 100 µM (inactive) | > 100 µM (inactive) | > 100 µM (inactive) | > 100 µM (inactive) |
| Cc1cccc2c(=O)c([Se]c3coc4c(C)cccc4c3=O)coc12 | 21.5 µM (inactive) | 14.6 µM (inactive) | 19.7 µM (inactive) | 19 µM (inactive) | 21.4 µM (inactive) | 20.8 µM (inactive) | 17.7 µM (inactive) | 16.3 µM (inactive) | – |
| Cc1cccc(C(C)C)c1NC(=O)CC1C(=O)Nc2ccccc2S1(=O)=O (stereo not drawn) | 18.1 µM (inactive) | 16.7 µM (inactive) | 27.6 µM (inactive) | 26.4 µM (inactive) | 6.03 µM (inactive) | 9.25 µM (inactive) | 13 µM (inactive) | 17.7 µM (inactive) | 13.4 µM (inactive) |
